Measured values as given in PMC7156458, “Synthetic biology based construction of biological activity-related library of fungal decalin-containing diterpenoid pyrones” (Nature Communications, 2020).

Molecular target: Aβ42 (Homo sapiens, UniProt P05067)
Test: Th-T (thioflavin-T) assay of Aβ42 aggregation
Format: biochemical

Sequence of Aβ42 (P05067 672-713): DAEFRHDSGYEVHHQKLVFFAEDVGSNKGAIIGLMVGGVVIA

## C=C1CC[C@@H]2[C@](C)(CC[C@H]3O[C@H](C=C(C)C)C[C@@]23C)[C@@H]1Cc1c(OC)oc(CO)c(C)c1=O [Compound 20]
Column suffix _20, reading M101
  Fig. 7a Th-T reading, mean of three wells: 3.25
Column suffix _20, reading M102
  Fig. 7a Th-T reading, mean of three wells: 3.237
Column suffix _20, reading M103
  Fig. 7a Th-T reading, mean of three wells: 3.23
Column suffix _20, reading M104
  Fig. 7a Th-T reading, mean of three wells: 3.246
Column suffix _20, reading M105
  Fig. 7a Th-T reading, mean of three wells: 3.269
Column suffix _20, reading M106
  Fig. 7a Th-T reading, mean of three wells: 3.248
Column suffix _50, measurement M19
  Th-T fluorescence, mean of three wells (Fig. 7a): 2.199
Column suffix _50, measurement M20
  Th-T fluorescence, mean of three wells (Fig. 7a): 2.217
Column suffix _50, measurement M21
  Th-T fluorescence, mean of three wells (Fig. 7a): 2.224
Column suffix _50, measurement M22
  Th-T fluorescence, mean of three wells (Fig. 7a): 2.216
Column suffix _50, measurement M23
  Th-T fluorescence, mean of three wells (Fig. 7a): 2.205
Column suffix _50, measurement M24
  Th-T fluorescence, mean of three wells (Fig. 7a): 2.2076
Column suffix _50, measurement M25
  Th-T fluorescence, mean of three wells (Fig. 7a): 2.21
Column suffix _50, measurement M26
  Th-T fluorescence, mean of three wells (Fig. 7a): 2.22
Column suffix _50, measurement M27
  Th-T fluorescence, mean of three wells (Fig. 7a): 2.2221
Column suffix _50, measurement M28
  Th-T fluorescence, mean of three wells (Fig. 7a): 2.198
Column suffix _50, measurement M29
  Th-T fluorescence, mean of three wells (Fig. 7a): 2.193
Column suffix _50, reading M1
  Th-T assay signal, mean of three wells (Fig. 7a): 0.1908
Column suffix _50, reading M2
  Th-T assay signal, mean of three wells (Fig. 7a): 0.1991
Column suffix _50, reading M3
  Th-T assay signal, mean of three wells (Fig. 7a): 0.2032
Column suffix _50, reading M4
  Th-T assay signal, mean of three wells (Fig. 7a): 0.2087
Column suffix _50, reading M5
  Th-T assay signal, mean of three wells (Fig. 7a): 0.2172
Column suffix _50, reading M6
  Th-T assay signal, mean of three wells (Fig. 7a): 0.2431
Column suffix _50, reading M7
  Th-T assay signal, mean of three wells (Fig. 7a): 0.2722
Column suffix _50, reading M8
  Th-T assay signal, mean of three wells (Fig. 7a): 0.3931
Column suffix _50, reading M9
  Th-T assay signal, mean of three wells (Fig. 7a): 0.6726
Column suffix _50, reading M10
  Th-T assay signal, mean of three wells (Fig. 7a): 1.1256
Column suffix _50, reading M11
  Th-T assay signal, mean of three wells (Fig. 7a): 1.605
Column suffix _50, reading M12
  Th-T assay signal, mean of three wells (Fig. 7a): 1.883
Column suffix _50, reading M13
  Th-T assay signal, mean of three wells (Fig. 7a): 2.0174
Column suffix _50, reading M14
  Th-T assay signal, mean of three wells (Fig. 7a): 2.101
Column suffix _50, reading M15
  Th-T assay signal, mean of three wells (Fig. 7a): 2.147
Column suffix _50, reading M16
  Th-T assay signal, mean of three wells (Fig. 7a): 2.173
Column suffix _50, reading M17
  Th-T assay signal, mean of three wells (Fig. 7a): 2.183
Column suffix _50, reading M18
  Th-T assay signal, mean of three wells (Fig. 7a): 2.192
Column suffix _50, reading M85
  Fig. 7a Th-T reading, mean of three wells: 2.067
Column suffix _50, reading M86
  Fig. 7a Th-T reading, mean of three wells: 2.077
Column suffix _50, reading M87
  Fig. 7a Th-T reading, mean of three wells: 2.082
Column suffix _50, reading M88
  Fig. 7a Th-T reading, mean of three wells: 2.092
Column suffix _50, reading M89
  Fig. 7a Th-T reading, mean of three wells: 2.095
Column suffix _50, reading M90
  Fig. 7a Th-T reading, mean of three wells: 2.096
Column suffix _50, reading M91
  Fig. 7a Th-T reading, mean of three wells: 2.085
Column suffix _50, reading M92
  Fig. 7a Th-T reading, mean of three wells: 2.089
Column suffix _50, reading M93
  Fig. 7a Th-T reading, mean of three wells: 2.088
Column suffix _50, reading M94
  Fig. 7a Th-T reading, mean of three wells: 2.094
Column suffix _50, reading M95
  Fig. 7a Th-T reading, mean of three wells: 2.0955
Column suffix _50, reading M96
  Fig. 7a Th-T reading, mean of three wells: 2.087
Column suffix _50, reading M97
  Fig. 7a Th-T reading, mean of three wells: 2.084
Column suffix _50, reading M98
  Fig. 7a Th-T reading, mean of three wells: 2.09
Column suffix _50, reading M99
  Fig. 7a Th-T reading, mean of three wells: 2.099
Column suffix _50, reading M100
  Fig. 7a Th-T reading, mean of three wells: 2.117
Column suffix _50, reading M101
  Fig. 7a Th-T reading, mean of three wells: 2.093
Column suffix _50, reading M102
  Fig. 7a Th-T reading, mean of three wells: 2.09
Column suffix _50, reading M103
  Fig. 7a Th-T reading, mean of three wells: 2.088
Column suffix _50, reading M104
  Fig. 7a Th-T reading, mean of three wells: 2.099
Column suffix _50, reading M105
  Fig. 7a Th-T reading, mean of three wells: 2.107
Column suffix _50, reading M106
  Fig. 7a Th-T reading, mean of three wells: 2.096
Compound at 10, reading M41 of time course
  Th-T fluorescence, mean of three wells: 3.473
Compound at 10, reading M42 of time course
  Th-T fluorescence, mean of three wells: 3.463
Compound at 10, reading M43 of time course
  Th-T fluorescence, mean of three wells: 3.47
Compound at 10, reading M44 of time course
  Th-T fluorescence, mean of three wells: 3.466
Compound at 10, reading M45 of time course
  Th-T fluorescence, mean of three wells: 3.48
Compound at 10, reading M46 of time course
  Th-T fluorescence, mean of three wells: 3.474
Compound at 10, reading M47 of time course
  Th-T fluorescence, mean of three wells: 3.473
Compound at 10, reading M48 of time course
  Th-T fluorescence, mean of three wells: 3.454
Compound at 10, reading M49 of time course
  Th-T fluorescence, mean of three wells: 3.4597
Compound at 10, reading M50 of time course
  Th-T fluorescence, mean of three wells: 3.479
Compound at 10, reading M51 of time course
  Th-T fluorescence, mean of three wells: 3.451
Compound at 10, reading M52 of time course
  Th-T fluorescence, mean of three wells: 3.467
Compound at 10, reading M53 of time course
  Th-T fluorescence, mean of three wells: 3.449
Compound at 10, reading M54 of time course
  Th-T fluorescence, mean of three wells: 3.468
Compound at 10, reading M55 of time course
  Th-T fluorescence, mean of three wells: 3.479
Compound at 10, reading M56 of time course
  Th-T fluorescence, mean of three wells: 3.4836
Compound at 10, reading M57 of time course
  Th-T fluorescence, mean of three wells: 3.456
Compound at 10, reading M58 of time course
  Th-T fluorescence, mean of three wells: 3.464
Compound at 10, reading M59 of time course
  Th-T fluorescence, mean of three wells: 3.461
Compound at 10, reading M60 of time course
  Th-T fluorescence, mean of three wells: 3.452
Compound at 10, reading M61 of time course
  Th-T fluorescence, mean of three wells: 3.461
Compound at 10, reading M62 of time course
  Th-T fluorescence, mean of three wells: 3.452
Compound at 20, reading M41 of time course
  Th-T fluorescence, mean of three wells: 3.421
Compound at 20, reading M42 of time course
  Th-T fluorescence, mean of three wells: 3.4495
Compound at 20, reading M43 of time course
  Th-T fluorescence, mean of three wells: 3.4108
Compound at 20, reading M44 of time course
  Th-T fluorescence, mean of three wells: 3.412
Compound at 20, reading M45 of time course
  Th-T fluorescence, mean of three wells: 3.402
Compound at 20, reading M46 of time course
  Th-T fluorescence, mean of three wells: 3.446
Compound at 20, reading M47 of time course
  Th-T fluorescence, mean of three wells: 3.447
Compound at 20, reading M48 of time course
  Th-T fluorescence, mean of three wells: 3.449
Compound at 20, reading M49 of time course
  Th-T fluorescence, mean of three wells: 3.413
Compound at 20, reading M50 of time course
  Th-T fluorescence, mean of three wells: 3.443
Compound at 20, reading M51 of time course
  Th-T fluorescence, mean of three wells: 3.447
Compound at 20, reading M52 of time course
  Th-T fluorescence, mean of three wells: 3.466
Compound at 20, reading M53 of time course
  Th-T fluorescence, mean of three wells: 3.442
Compound at 20, reading M54 of time course
  Th-T fluorescence, mean of three wells: 3.43
Compound at 20, reading M55 of time course
  Th-T fluorescence, mean of three wells: 3.418
Compound at 20, reading M56 of time course
  Th-T fluorescence, mean of three wells: 3.449
Compound at 20, reading M57 of time course
  Th-T fluorescence, mean of three wells: 3.4659
Compound at 20, reading M58 of time course
  Th-T fluorescence, mean of three wells: 3.449
Compound at 20, reading M59 of time course
  Th-T fluorescence, mean of three wells: 3.427
Compound at 20, reading M60 of time course
  Th-T fluorescence, mean of three wells: 3.432
Compound at 20, reading M61 of time course
  Th-T fluorescence, mean of three wells: 3.433
Compound at 20, reading M62 of time course
  Th-T fluorescence, mean of three wells: 3.454
Compound at 50, reading M41 of time course
  Th-T fluorescence, mean of three wells: 2.136
Compound at 50, reading M42 of time course
  Th-T fluorescence, mean of three wells: 2.134
Compound at 50, reading M43 of time course
  Th-T fluorescence, mean of three wells: 2.091
Compound at 50, reading M44 of time course
  Th-T fluorescence, mean of three wells: 2.118
Compound at 50, reading M45 of time course
  Th-T fluorescence, mean of three wells: 2.11
Compound at 50, reading M46 of time course
  Th-T fluorescence, mean of three wells: 2.107
Compound at 50, reading M47 of time course
  Th-T fluorescence, mean of three wells: 2.113
Compound at 50, reading M48 of time course
  Th-T fluorescence, mean of three wells: 2.125
Compound at 50, reading M49 of time course
  Th-T fluorescence, mean of three wells: 2.092
Compound at 50, reading M50 of time course
  Th-T fluorescence, mean of three wells: 2.091
Compound at 50, reading M51 of time course
  Th-T fluorescence, mean of three wells: 2.089
Compound at 50, reading M52 of time course
  Th-T fluorescence, mean of three wells: 2.103
Compound at 50, reading M53 of time course
  Th-T fluorescence, mean of three wells: 2.105
